Reference: patent US20100168137A1, “COMBINATION FOR USE IN THE TREATMENT OF INFLAMMATORY DISORDERS” (priority 2006, published 2010)

Legend:
[1] = test system: Macrophage inflammatory protein-2 (MIP-2), also designated chemokine (C-X-C motif) ligand 2 (CXCL2); assay: MIP-2 gene expression (microarray) in balloon-injured rat carotid artery; format: in vivo; conditions: for effect on MIP-2 gene expression (in words): 5 mg/kg of each drug s.c. 60 minutes before injury, 8 hours after injury, versus saline control; for mean MIP-2 signal intensity: male Sprague-Dawley rats, 5 mg/kg of each drug s.c. 60 minutes before carotid balloon injury, tissue taken 8 hours after injury, 3 rats per group, saline control 203
[2] = test system: Platelet derived growth factor, alpha (PDGFa); assay: PDGFa gene expression (microarray) in balloon-injured rat carotid artery; format: in vivo; conditions: for effect on PDGFa gene expression (in words): 5 mg/kg of each drug s.c. 60 minutes before injury, 8 hours after injury, versus saline control; for mean PDGFa signal intensity: male Sprague-Dawley rats, 5 mg/kg of each drug s.c. 60 minutes before carotid balloon injury, tissue taken 8 hours after injury, 3 rats per group, saline control 528
MonoMac-6 (MM6) cells = assay: MonoMac-6 macrophage proliferation (WST-1 reagent); format: cell-based, human; conditions: 48 hours; for inhibitory effect on MM6 proliferation at 10 μM (in words): WST-1, n=5, data not shown; for inhibition at 100 µM: Homo sapiens, MONO-MAC-6, 100 μM final concentration of each drug, WST-1, mean value n=5, versus untreated cells
Method: Cells from the human macrophage cell-line MonoMac-6 (MM6) (Ziegler-Heitbrock et al, Int. J. Cancer, 41, 456 (1988)) were cultured (37° C./5% CO2) in RPMI-1640 medium supplemented with 1 mM sodium pyruvate, 1×nonessential amino acids, 1-100 μg/mL insulin, 1 mM oxalacetic acid, 100 units/mL penicillin, 100 μg/mL streptomycin and 10% (v/v) fetal bovine serum. At the start of the experiment, MM6 cells were seeded in 96-well plates at a density of 1×10^5 cells/mL (100 μl per well). Proliferation of the MM6 cells was measured using the Cell Proliferation Reagent WST-1 (Roche Diagnostics Scandinavia AB, Bromma, Sweden) or by cell counting using a microscope. The WST-1 reagent is designed to be used for spectrophotometric quantification of e.g. cell growth in proliferation assays and was used according to the manufacturers' instructions. […] Stock solutions of pemirolast (potassium salt purchased from American Custom Chemicals Corporation, San Diego, USA) and ramatroban (purchased from Cayman Chemical, Ann Arbor, Mich., USA as free acid and transferred into sodium salt by adding one equivalent of aqueous NaOH) were made in sterile saline.
The effects of pemirolast and/or ramatroban (added at the start of the experiments) on MM6 cell proliferation were studied 48 hours after start of the experiments using the WST-1 reagent described above.

Compound: Cc1cccn2c(=O)c(-c3nnn[nH]3)cnc12 [pemirolast]
- effect on MIP-2 gene expression (in words) [1]: did not reduce MIP-2 gene expression levels
- mean MIP-2 signal intensity [1]: 710
- effect on PDGFa gene expression (in words) [2]: did not reduce PDGFa gene expression levels
- mean PDGFa signal intensity [2]: 800
- inhibitory effect on MM6 proliferation at 10 μM (in words) (MonoMac-6 (MM6) cells): very similar to that of 100 μM of pemirolast
- inhibition at 100 µM (MonoMac-6 (MM6) cells): 9.4%

Compound: O=C(O)CCn1c2c(c3ccccc31)C[C@H](NS(=O)(=O)c1ccc(F)cc1)CC2 [ramatroban]
- effect on MIP-2 gene expression (in words) [1]: did not reduce MIP-2 gene expression levels
- mean MIP-2 signal intensity [1]: 326
- effect on PDGFa gene expression (in words) [2]: did not reduce PDGFa gene expression levels
- mean PDGFa signal intensity [2]: 566
- inhibitory effect on MM6 proliferation at 10 μM (in words) (MonoMac-6 (MM6) cells): less that that of 100 μM of ramatroban
- inhibition at 100 µM (MonoMac-6 (MM6) cells): 16.8%
